Test results from US6846636B1, “Methods and compositions for HDL holoparticle uptake receptor” (American National Red Cross, priority 1998, dated 2005).
“Also recorded” adds a separate entry of the source.

B1: ovalbumin: control protein (protein, UniProt P01012 2-386, looked up)
Ovalbumin: GSIGAASMEFCFDVFKELKVHHANENIFYCPIAIMSALAMVYLGAKDSTRTQINKVVRFDKLPGFGDSIEAQCGTSVNVHSSLRDILNQITKPNDVYSFSLASRLYAEERYPILPEYLQCVKELYRGGLEPINFQTAADQARELINSWVESQTNGIIRNVLQPSSVDSQTAMVLVNAIVFKGLWEKAFKDEDTQAMPFRVTEQESKPVQMMYQIGLFRVASMASEKMKILELPFASGTMSMLVLLPDEVSGLEQLESIINFEKLTEWTSSNVMEERKIKVYLPRMKMEEKYNLTSVLMAMGITDVFSSSANLSGISSAESLKISQAVHAAHAEINEAGREVVGSAEAGVDAASVSEEFRADHPFLFCIKHIATNAVLFFGRCVSP

Legend:
[1] = tested on: RA/Bt2cAMP-treated F9 cells; assay: DiI-HDL uptake by fluorescence-activated cell (FAC) scanning; format: cell-based, mouse; conditions: DiI-HDL 1 μg/ml, 37° C., competitors preincubated, apolipoproteins and RAP 1 μM, apoE 0.25 μM, heparin 80 μM, IgGs 200 μg/ml, heparinase I 10 U/ml
Procedure: Untreated and RA/Bt2cAMP-treated F9 cells (1-1.5×10^5 cells/cm^2) were grown for 18 hours in serum-free medium (DMEM, ITS, penicillin, and streptomycin). After washing the cell layers with the same serum-free medium, apoE-free DiI-HDL was added to a final concentration of 1 μg/ml and incubated for 1-2 hours at 37° C., 5% CO2. For competition experiments, competitors were added in serum-free medium and incubated for 0.5 hours at 37° C., 5% CO2 prior to the addition of the DiI-HDL. After the incubation, the medium was removed, cell layers washed with serum-free medium and the cells released with a 0.5 mg/ml trypsin-0.53 mM EDTA solution (Mediatech). The cells were then pelleted by centrifugation at 180×g and resuspended in DMEM. Twice more, the cells were pelleted by centrifugation at 180×g, and resuspended in dPBS. The cells were then subjected to FAC sorting on a FACStarplus instrument (Becton Dickinson, San Jose, Calif.).
RA/Bt2cAMP-treated and -untreated F9 cells (1-1.5×10^5 cclls/cm^2) were grown for 18 h in SFM. After washing the cell layers with SFM, DiI-HDL or DIO-LDL was added to a final concentration of 1 μg/ml and incubated for 2 h at 37° C., 5% CO2. For competition experiments, competitors (HDL, HDL2, HDL3 and their corresponding apoE-free forms), LDL, oxidized LDL, VLDL, §-VLDL, Lp(a) ([…]), apoA-I (28.3 μg/ml, 1 μM), apoA-II (I 7.3 μg/ml, 1 μM), apoC-I (6.6 μg/ml, 1 μM), apoC-III (8.8 μg/ml, 1 μM), apoJ (70 μg/ml, 1 μM), ovalbumin (45 μg/ml, 1 μM), RAP (39 μg/ml, 1 μM), apoE (8.5 μg/ml, 0.25 μM), heparin (80 μM, 250 U/ml) or IgGs (200 μg/ml) were added in SFM and incubated for 45 min at 37° C., 5% CO2 prior to the addition of the fluorescent lipoproteins. After the incubation, the medium was removed, cell layers were washed with SFM and the cells were released with trypsin-EDTA-proteinase K. The cells were washed once with DMEM, twice with dPBS, then subjected to FAC scanning on a FACStar Plus instrument (Becton Dickinson, San Jose, Calif.). Plotted data are from gated cells having fluorescence intensity values greater than the autofluorescence values of 99% of unlabeled cells. For some experiments, cell layers were treated with hepaninase I (10 U/ml) for 2 h prior to the addition of the DiI-HDL.

[2] = tested on: RA/Bt2cAMP-treated F9 cells; assay: [125I]-HDL internalization and degradation assay; format: cell-based, mouse; conditions: [125I]-HDL 2 μg/ml, 6.5 h at 37° C.; unlabeled HDL 80 μg/ml, RAP 1 μM, chloroquine 50 μM, anti-cubilin IgG 150 μg/ml
Procedure: HDL internalization and degradation assays were performed in a manner similar to LDL and apolipoprotein J internalization and degradation assays described previously (Stefansson et al., 1995; Kounnas et al., 1995). ApoE-free HDL (HDL3) was labeled with [^125I]-iodine using the iodine monochloride method (Goldstein et al., 1983). RA/Bt2cAMP-treated and -untreated F9 cells were seeded onto gelatin-coated 3.83 cm^2 wells (Corning, Corning, N.Y.) at 1.5-1.75×10^5 cells/well and allowed to grow for 18 h at 37° C., 5% CO2. Prior to the addition of [^125I]-HDL, the cells were washed with serum-free DMEM and incubated in the assay medium (DMEM, 20 mM HEPES, ITS, penicillin/streptomycin, and 1.5% BSA) containing unlabeled HDL3 (80 μg/ml), RAP (1 μM), chloroquine (50 μM) (Sigma) or BSA (10 μM) and incubated for 0.5 hours at 37° C., 5% CO2. The medium was then removed and [^125I]-HDL3 (2 μg/ml) in serum-free medium or in serum-free medium containing unlabeled HDL3 (80 μg/ml), RAP (1 μM), chloroquine (50 μM) or BSA (10 μM) was added and incubated with the cells for 6.5 h at 37° C., 5% CO2. The conditioned culture medium was treated with trichloroacetic acid (final concentration 10%) and centrifuged at 10,000×g for 10 min. The amount of radioactivity present in the supernatant was taken to represent the amount of degraded HDL (Goldstein and Brown, 1974). […] The released cells were pelleted by centrifugation at 1,000×g for 15 min and the amount of radioactivity in the cell pellet measured.
HDL internalization and degradation assays were performed as described previously for LDL and apolipoprotein J (Hammad et al., 1997; Kounnas et al., 1995; Stefansson et al., 1995a). […] The amount of radioactivity in the supernatant was taken to represent the amount of degraded HDL (Goldstein and Brown, 1974). […] The released cells were pelleted by centrifugation at 1,000×g for 15 min and the amount of radioactivity in the cell pellet was measured and taken to represent the amount of internalized HDL.

[3] = tested on: RA/Bt2cAMP-treated F9 cells; assay: Cell layer-associated [35S]-sulfate after heparinase I treatment; format: cell-based, mouse; conditions: heparinase I 10 U/ml for 2 h; relative to controls
[4] = tested on: visceral yolk sac endoderm; assay: DiI-HDL uptake by mouse embryo yolk sac (ex utero culture, confocal microscopy); conditions: ± S.D.; DiI-HDL 1 μg/ml 1 h; RAP, ovalbumin 1 μM; IgGs 400 μg/ml; p<0.01 vs control
Procedure: Embryos (8-8.5 days post-conception) were removed from timed pregnant ICR mice (Harlan Sprague Dawley, Inc.) so as to leave visceral yolk sac endoderm intact and placed in DMEM. The embryos were then incubated in DMEM containing RAP (1 μM), ovalbumin (1 μM), rabbit anti-cubilin IgG (400 μg/ml) or normal rabbit IgG (400 μg/ml) for 0.5 h at 37° C., 5% CO2. DiI-HDL was added to a final concentration of (1 μg/ml) and incubated for 1 h at 37° C., 5% CO2. The medium was removed and the embryos gently washed with dPBS and fixed with 3% paraformaldehyde for 15 min. The fixed embryos were placed in dPBS, 0.1% azide in a well slide and examined by laser scanning confocal microscopy. The intensity of yolk sac fluorescence in mouse embryos incubated with DiI-HDL in the presence of either RAP, ovalbumin, anti-cubilin IgG or control IgG was evaluated by seven people in a double blinded fashion. The assessments of relative intensity were analyzed by a nonparametric statistical test using RANK and ANOVA procedures (SAS Institute, Inc., Cary, N.C.).

| Molecule | DiI-HDL uptake in presence of competitor [1] | also measured |
| --- | --- | --- |
| apoC-III: Human apolipoprotein | little or no ability to compete | – |
| apoE: Human apoE3 purchased from Calbiochem | competed effectively | – |
| ApoE2: apolipoprotein component of HDL | inhibit HDL uptake | – |
| apoC-1: Human apolipoprotein (TPDVSSALDKLKEFGNTLEDKARELISRIKQSELSAKMREWFSETFQKVKEKLKIDS; UniProt P02654 27-83, looked up) | little or no ability to compete | – |
| apoA-I: Human apolipoprotein, major apolipoprotein component of HDL | competed effectively | DiI-HDL uptake in presence of competitor ([1]; listed as ApoAI): inhibit HDL uptake |
| CCN(CC)CCCC(C)Nc1ccnc2cc(Cl)ccc12 (centres unmarked) [chloroquine, reference compound] | – | degradation of [125I]-HDL [2]: effectively block the degradation |
| Fucoidan [reference compound] | inability of these ligands to block HDL uptake | – |
| apoj: apolipoprotein J from Quidel | little or no ability to compete | – |
| heparinase I [reference compound] | Neither heparin nor heparinase I pretreatment of RA/Bt2cAMP-differentiated F9 cells inhibited DiI-HDL uptake | DiI-HDL uptake in presence of competitor ([1]; listed as heparinase): did not block HDL uptake; reduction of cell layer-associated [35S]-sulfate [3]: 50% |
| ApoAII: Human apolipoprotein, major apolipoprotein component of HDL | inhibit HDL uptake | DiI-HDL uptake in presence of competitor ([1]; listed as apoA-E): competed effectively |
| heparin [reference compound] | Neither heparin nor heparinase I pretreatment of RA/Bt2cAMP-differentiated F9 cells inhibited DiI-HDL uptake; also recorded: did not block HDL uptake | – |
| Aprotinin [reference compound] | inability of these ligands to block HDL uptake | – |
| B1 | – | fluorescence intensity RANK score of DiI-HDL incorporation into extraembryonic endoderm [4]: 4.16±0.15 |
